Assay results: patent publication US20240025922A1, “TETRAHYDROPYRIDO[3,4-d]PYRIMIDINES AS HPK1 INHIBITORS” (Merck Patent GmbH, priority 2022, published 2024)
Where two headings read alike, the source gives them in different places.

How the values were obtained:
[1] = target: full-length human HPK1 (MAP4K1) (Homo sapiens (Human), UniProt Q92918); assay: HPK1 Kinase Assay (Biochemical Assay), ADP-Glo; settings: GST-HPK1 3.2 nM, 10 μM ATP, MBP substrate, read-out: HPK1 enzymatic IC50
In short: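 GST-tagged full-length human HPK1 was expressed in Sf21 cells and used at 3.2 nM in 50 mM HEPES pH 7.5, 10 mM MgCl2, 2 mM DTT, 12.5 mM O-glycerophosphate, 0.01% BSA and 0.02% Brij-35. It was preincubated 15 min with 10-point compound dilutions, and the reaction was started with a start mix of 10 μM ATP and 3.235 μM MBP. After 120 min, ADP was measured by ADP-Glo luminescence and IC50 derived.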

[2] = target: HPK1 (SLP76 phosphorylation at Ser376 in Jurkat and EL-4 cells) (Homo sapiens, UniProt Q92918); format: cell-based
In short: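 Jurkat (human) and EL-4 (mouse) cells, endogenous HPK1/SLP76, preincubated 60 min with compounds (10-point dilution), then stimulated with αCD3/αCD28 beads at 37 °C: 15 min for Jurkat, 30 min for EL-4. Ser376 pSLP76 in lysates read by AlphaLISA (Jurkat) or HTRF (EL-4); % inhibition and IC50 fitted.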

[3] = αCD3/αCD28 Dynabeads stimulated cells, pSLP76 (Ser376) detection; read-out: HPK1 pSLP76 IC50

full-length human HPK1 (MAP4K1), sequence (Q92918 whole entry): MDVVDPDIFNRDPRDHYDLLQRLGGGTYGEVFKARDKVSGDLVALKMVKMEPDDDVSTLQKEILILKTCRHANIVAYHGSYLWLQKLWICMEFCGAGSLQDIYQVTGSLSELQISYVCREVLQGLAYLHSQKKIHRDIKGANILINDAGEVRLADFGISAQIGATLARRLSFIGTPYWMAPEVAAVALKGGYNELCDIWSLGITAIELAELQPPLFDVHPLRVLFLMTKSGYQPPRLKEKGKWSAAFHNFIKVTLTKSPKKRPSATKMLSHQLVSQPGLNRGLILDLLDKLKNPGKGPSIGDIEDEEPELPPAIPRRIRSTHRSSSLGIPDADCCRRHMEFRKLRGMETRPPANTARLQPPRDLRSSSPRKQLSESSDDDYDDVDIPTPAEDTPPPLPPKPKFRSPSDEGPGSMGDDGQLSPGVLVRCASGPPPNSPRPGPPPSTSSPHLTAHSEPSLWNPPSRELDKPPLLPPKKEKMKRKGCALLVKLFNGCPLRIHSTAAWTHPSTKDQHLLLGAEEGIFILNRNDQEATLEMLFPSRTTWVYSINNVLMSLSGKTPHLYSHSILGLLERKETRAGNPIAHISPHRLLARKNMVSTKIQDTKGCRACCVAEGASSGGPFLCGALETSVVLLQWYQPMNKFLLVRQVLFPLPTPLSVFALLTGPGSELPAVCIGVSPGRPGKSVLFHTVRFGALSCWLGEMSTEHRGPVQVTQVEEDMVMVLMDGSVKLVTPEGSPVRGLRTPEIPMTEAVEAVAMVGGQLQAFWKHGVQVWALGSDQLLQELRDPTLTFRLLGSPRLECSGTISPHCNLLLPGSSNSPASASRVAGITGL
HPK1 (SLP76 phosphorylation at Ser376 in Jurkat and EL-4 cells), sequence (Q92918 whole entry, looked up): as the sequence (Q92918 whole entry) above

| IC50 [1] [nM] | IC50 [2, 3] [nM] | SMILES | IC50 ([2]; read-out: HPK1 pSLP76 IC50; αCD3/αCD28 Dynabeads stimulated cells, pSLP76 (Ser376) detection) [nM] |
| --- | --- | --- | --- |
| < 100 | < 500 | Cc1c(N2CCc3cnc(Nc4ccc(CC(=O)N5CC(F)C5)cc4)nc3C2)cnc2c1NCCO2 [Example 155, 1-(3-fluoroazetidin-1-yl)-2-{4-[(7-{8-methyl-1H,2H,3H-pyrido[2,3-b][1,4]oxazin-7-yl}-5H,6H,7H,8H-pyrido[3,4-d]pyrimidin-2-yl)amino]phenyl}ethan-1-one] |  |
| < 100 | < 500 | Cc1c(N2CCc3cnc(Nc4ccc5c(c4)CN(C)S(=O)(=O)C5)nc3C2)cnc2c1NCCO2 [Example 156, 3-methyl-6-[(7-{8-methyl-1H,2H,3H-pyrido[2,3-b][1,4]oxazin-7-yl}-5H,6H,7H,8H-pyrido[3,4-d]pyrimidin-2-yl)amino]-3,4-dihydro-1H-2?6,3-benzothiazine-2,2-dione] |  |
| < 100 | < 500 | Cc1c(N2CCc3cnc(Nc4ccc(CCS(C)(=O)=O)cc4)nc3C2)cnc2c1NCCO2 [Example 161, N-[4-(2-methanesulfonylethyl)phenyl]-7-{8-methyl-1H,2H,3H-pyrido[2,3-b][1,4]oxazin-7-yl}-5H,6H,7H,8H-pyrido[3,4-d]pyrimidin-2-amine] |  |
| < 100 | < 500 | COCCOCC(=O)Nc1ccc(Nc2ncc3c(n2)CN(c2cnc4c(c2C)NCCO4)CC3)cc1C [Example 162, 2-(2-methoxyethoxy)-N-{2-methyl-4-[(7-{8-methyl-1H,2H,3H-pyrido[2,3-b][1,4]oxazin-7-yl}-5H,6H,7H,8H-pyrido[3,4-d]pyrimidin-2-yl)amino]phenyl}acetamide] |  |
| < 100 | < 500 | Cc1c(N2CCc3cnc(Nc4ccc(CC(=O)N5CCC5)cc4)nc3C2)cnc2c1NCCO2 [Example 163, 1-(azetidin-1-yl)-2-(4-((7-(8-methyl-2,3-dihydro-1H-pyrido[2,3-b][1,4]oxazin-7-yl)-5,6,7,8-tetrahydropyrido[3,4-d]pyrimidin-2-yl)amino)phenyl)ethan-1-one] |  |
| < 100 | < 500 | Cc1c(N2CCc3cnc(Nc4ccc(CC(=O)N5CC6(COC6)C5)cc4)nc3C2)cnc2c1NCCO2 [Example 164, 2-{4-[(7-{8-methyl-1H,2H,3H-pyrido[2,3-b][1,4]oxazin-7-yl}-5H,6H,7H,8H-pyrido[3,4-d]pyrimidin-2-yl)amino]phenyl}-1-{2-oxa-6-azaspiro[3.3]heptan-6-yl}ethan-1-one] |  |
| < 100 | < 500 | Cc1c(N2CCc3cnc(Nc4cccc(CS(C)(=N)=O)c4)nc3C2)cnc2c1NCCO2 (centres unmarked) [Example 168, imino(methyl)(3-((7-(8-methyl-2,3-dihydro-1H-pyrido[2,3-b][1,4]oxazin-7-yl)-5,6,7,8-tetrahydropyrido[3,4-d]pyrimidin-2-yl)amino)benzyl)-16-sulfanone] |  |
| < 100 | < 500 | Cc1c(N2CCc3cnc(Nc4ccc(CC(=O)N5CC(C)(O)C5)cc4)nc3C2)cnc2c1NCCO2 [Example 173, 1-(3-hydroxy-3-methylazetidin-1-yl)-2-{4-[(7-{8-methyl-1H,2H,3H-pyrido[2,3-b][1,4]oxazin-7-yl}-5H,6H,7H,8H-pyrido[3,4-d]pyrimidin-2-yl)amino]phenyl}ethan-1-one] |  |
| < 100 | < 500 | Cc1c(N2CCc3cnc(Nc4ccc(CC(=O)N5CC(OC(C)C)C5)cc4)nc3C2)cnc2c1NCCO2 [Example 174, 2-{4-[(7-{8-methyl-1H,2H,3H-pyrido[2,3-b][1,4]oxazin-7-yl}-5H,6H,7H,8H-pyrido[3,4-d]pyrimidin-2-yl)amino]phenyl}-1-[3-(propan-2-yloxy)azetidin-1-yl]ethan-1-one] |  |
| < 100 | < 500 | COCC1CN(C(=O)Cc2ccc(Nc3ncc4c(n3)CN(c3cnc5c(c3C)NCCO5)CC4)cc2)C1 [Example 175, 1-[3-(methoxymethyl)azetidin-1-yl]-2-{4-[(7-{8-methyl-1H,2H,3H-pyrido[2,3-b][1,4]oxazin-7-yl}-5H,6H,7H,8H-pyrido[3,4-d]pyrimidin-2-yl)amino]phenyl}ethan-1-one] |  |
| < 100 | < 500 | Cc1c(N2CCc3cnc(Nc4ccc(CS(=O)(=O)C5CC5)cn4)cc3C2)cnc2c1NCCO2 [Example 176, N-{5-[(cyclopropanesulfonyl)methyl]pyridin-2-yl}-6-{8-methyl-1H,2H,3H-pyrido[2,3-b][1,4]oxazin-7-yl}-5,6,7,8-tetrahydro-2,6-naphthyridin-3-amine] |  |
| < 100 | < 500 | Cc1cc(Nc2ncc3c(n2)CN(c2cnc4c(c2C)NCCO4)CC3)ccc1CS(C)(=O)=O [Example 178, N-[4-(methanesulfonylmethyl)-3-methylphenyl]-7-{8-methyl-1H,2H,3H-pyrido[2,3-b][1,4]oxazin-7-yl}-5H,6H,7H,8H-pyrido[3,4-d]pyrimidin-2-amine] |  |
| < 100 | < 500 | Cc1cc(Nc2cc3c(cn2)CCN(c2cnc4c(c2C)NCCO4)C3)ccc1CS(C)(=O)=O [Example 179, N-[4-(methanesulfonylmethyl)-3-methylphenyl]-6-{8-methyl-1H,2H,3H-pyrido[2,3-b][1,4]oxazin-7-yl}-5,6,7,8-tetrahydro-2,6-naphthyridin-3-amine] |  |
| < 100 | < 500 | COC1CN(C(=O)Cc2ccc(Nc3ncc4c(n3)CN(c3cnc5c(c3C)NCCO5)CC4)cc2)C1 [Example 181, 1-(3-methoxyazetidin-1-yl)-2-{4-[(7-{8-methyl-1H,2H,3H-pyrido[2,3-b][1,4]oxazin-7-yl}-5H,6H,7H,8H-pyrido[3,4-d]pyrimidin-2-yl)amino]phenyl}ethan-1-one] |  |
| < 100 | < 500 | Cc1c(N2CCc3cnc(Nc4ccc(C(C)(C)C#N)cc4)nc3C2)cnc2c1NCCO2 [Example 182, 2-methyl-2-(4-((7-(8-methyl-2,3-dihydro-1H-pyrido[2,3-b][1,4]oxazin-7-yl)-5,6,7,8-tetrahydropyrido[3,4-d]pyrimidin-2-yl)amino)phenyl)propanenitrile] |  |
| < 100 | < 500 | Cc1c(N2CCc3cnc(Nc4ccc(Cn5ccnn5)cc4)nc3C2)cnc2c1NCCO2 [Example 183, 7-{8-methyl-1H,2H,3H-pyrido[2,3-b][1,4]oxazin-7-yl}-N-{4-[(1H-1,2,3-triazol-1-yl)methyl]phenyl}-5H,6H,7H,8H-pyrido[3,4-d]pyrimidin-2-amine] |  |

| SMILES | IC50 [1] [nM] | IC50 [2, 3] [nM] | IC50 ([2]; read-out: HPK1 pSLP76 IC50; αCD3/αCD28 Dynabeads stimulated cells, pSLP76 (Ser376) detection) [nM] |
| --- | --- | --- | --- |
| Cc1c(N2CCc3cnc(Nc4ccc(CC(=O)N5CC(N6CCOCC6)C5)cc4)nc3C2)cnc2c1NCCO2 [Example 165, 2-{4-[(7-{8-methyl-1H,2H,3H-pyrido[2,3-b][1,4]oxazin-7-yl}-5H,6H,7H,8H-pyrido[3,4-d]pyrimidin-2-yl)amino]phenyl}-1-[3-(morpholin-4-yl)azetidin-1-yl]ethan-1-one] | < 100 | < 500 |  |
| Cc1c(N2CCc3cnc(Nc4ccc(CS(C)(=O)=O)cc4)nc3C2)cnc2nc[nH]c12 [Example 171, N-[4-(methanesulfonylmethyl)phenyl]-7-{7-methyl-1H-imidazo[4,5-b]pyridin-6-yl}-5H,6H,7H,8H-pyrido[3,4-d]pyrimidin-2-amine] | < 100 |  | 500 to 1000 |
| Cc1c(N2CCc3cnc(Nc4ccc(CS(C)(=O)=O)cc4)nc3C2C)cnc2c1NCCO2 (centres unmarked) [Example 180, N-[4-(methanesulfonylmethyl)phenyl]-8-methyl-7-{8-methyl-1H,2H,3H-pyrido[2,3-b][1,4]oxazin-7-yl}-5H,6H,7H,8H-pyrido[3,4-d]pyrimidin-2-amine] | < 100 | < 500 |  |
